System: MV-4-11 cells
Assay: Gene expression microarray analysis (Affymetrix PrimeView) and GSEA
Assay type: cell-based, human
Design: RFU PODN (11730768_x_at) / Fold change /veh PODN (11730768_x_at) / RFU LINC00158 (11744669_a_at) / Fold change /veh LINC00158 (11744669_a_at) / RFU DUSP10 (11751237_a_at) / Fold change /veh DUSP10 (11751237_a_at) / RFU ID3 (11757404_x_at) / Fold change /veh ID3 (11757404_x_at) / RFU PLEKHG5 (11737974_s_at) / Fold change /veh PLEKHG5 (11737974_s_at) / RFU LRRC4B (11730491_at) / Fold change /veh LRRC4B (11730491_at) / RFU GIMAP4 (11747438_a_at) / Fold change /veh GIMAP4 (11747438_a_at) / RFU KRT8 (11758183_x_at) / Fold change /veh KRT8 (11758183_x_at) / RFU CNN1 (11734310_a_at) / Fold change /veh CNN1 (11734310_a_at) / RFU VPS37D (11726825_at) / Fold change /veh VPS37D (11726825_at) / RFU C10orf10 (11716522_x_at) / Fold change /veh C10orf10 (11716522_x_at) / RFU KIR2DL2 /// KIR2DL4 /// KIR2DL5A /// KIR2DL5B /// KIR2DS1 /// KIR2DS2 /// KIR2DS3 /// KIR2DS4 /// KIR3DL3 /// KIR3DL3 /// KIR3DS1 (11738374_at) / Fold change /veh KIR2DL2 /// KIR2DL4 /// KIR2DL5A /// KIR2DL5B /// KIR2DS1 /// KIR2DS2 /// KIR2DS3 /// KIR2DS4 /// KIR3DL3 /// KIR3DL3 /// KIR3DS1 (11738374_at) / RFU C1QL1 (11718748_at) / Fold change /veh C1QL1 (11718748_at) / RFU TMPRSS4 (11747572_a_at) / Fold change /veh TMPRSS4 (11747572_a_at) / RFU HAMP (11756126_x_at) / Fold change /veh HAMP (11756126_x_at) / RFU RNFT2 (11725882_a_at) / Fold change /veh RNFT2 (11725882_a_at) / RFU NR4A2 (11747474_a_at) / Fold change /veh NR4A2 (11747474_a_at) / RFU ABCC12 (11746883_a_at) / Fold change /veh ABCC12 (11746883_a_at) / RFU TMEM136 (11760407_x_at) / Fold change /veh TMEM136 (11760407_x_at) / RFU CLDN22 /// WWC2 (11732394_at) / Fold change /veh CLDN22 /// WWC2 (11732394_at) / RFU HLA-DPB1 (11760878_x_at) / Fold change /veh HLA-DPB1 (11760878_x_at) / RFU SPINT1 (11716480_a_at) / Fold change /veh SPINT1 (11716480_a_at) / RFU GAP43 (11754022_s_at) / Fold change /veh GAP43 (11754022_s_at) / RFU A4GNT (11735810_at) / Fold change /veh A4GNT (11735810_at) / RFU PRB3 (11715151_x_at) / Fold change /veh PRB3 (11715151_x_at) / RFU TUBB4B (11761932_at) / Fold change /veh TUBB4B (11761932_at) / RFU CAPN14 (11732068_a_at) / Fold change /veh CAPN14 (11732068_a_at) / RFU TMCC2 (11721928_a_at) / Fold change /veh TMCC2 (11721928_a_at) / RFU IRGQ (11745062_a_at) / Fold change /veh IRGQ (11745062_a_at) / RFU FAM174B (11720279_a_at) / Fold change /veh FAM174B (11720279_a_at) / RFU TMPRSS4 (11748680_a_at) / Fold change /veh TMPRSS4 (11748680_a_at) / RFU FAM212B (11763350_a_at) / Fold change /veh FAM212B (11763350_a_at) / RFU PLEKHG5 (11743358_a_at) / Fold change /veh PLEKHG5 (11743358_a_at) / RFU ZSCAN30 (11745921_a_at) / Fold change /veh ZSCAN30 (11745921_a_at) / RFU CMKLR1 (11741424_a_at) / Fold change /veh CMKLR1 (11741424_a_at) / RFU LOC101060620 /// MAPK8IP1 (11723275_at) / Fold change /veh LOC101060620 /// MAPK8IP1 (11723275_at) / RFU SPTSSB (11747773_x_at) / Fold change /veh SPTSSB (11747773_x_at) / RFU PRSS12 (11739890_at) / Fold change /veh PRSS12 (11739890_at) / RFU BIN1 (11741810_x_at) / Fold change /veh BIN1 (11741810_x_at) / RFU WNT11 (11732464_a_at) / Fold change /veh WNT11 (11732464_a_at) / RFU C10orf10 (11716521_a_at) / Fold change /veh C10orf10 (11716521_a_at) / RFU C5orf56 (11738089_at) / Fold change /veh C5orf56 (11738089_at) / RFU CYB561 (11721691_x_at) / Fold change /veh CYB561 (11721691_x_at) / RFU ANKRD19P (11752326_a_at) / Fold change /veh ANKRD19P (11752326_a_at) / RFU OR2T12 /// OR2T33 /// OR2T8 (11738714_s_at) / Fold change /veh OR2T12 /// OR2T33 /// OR2T8 (11738714_s_at) / RFU VCAN (11748164_a_at) / Fold change /veh VCAN (11748164_a_at) / RFU JSRP1 (11732532_at) / Fold change /veh JSRP1 (11732532_at) / RFU KRTAP10-11 (11738290_x_at) / Fold change /veh KRTAP10-11 (11738290_x_at) / RFU MYO3A (11730013_a_at) / Fold change /veh MYO3A (11730013_a_at) / RFU EBF3 (11725865_a_at) / Fold change /veh EBF3 (11725865_a_at) / RFU CAMK2N1 (11719241_x_at) / Fold change /veh CAMK2N1 (11719241_x_at) / RFU C5orf56 (11738088_a_at) / Fold change /veh C5orf56 (11738088_a_at) / RFU OLFML3 (11715873_a_at) / Fold change /veh OLFML3 (11715873_a_at) / RFU LOC100653217 /// NTM (11731650_a_at) / Fold change /veh LOC100653217 /// NTM (11731650_a_at) / RFU MAPK11 (11762145_a_at) / Fold change /veh MAPK11 (11762145_a_at) / RFU FIZ1 (11724087_x_at) / Fold change /veh FIZ1 (11724087_x_at) / RFU OASL (11726364_x_at) / Fold change /veh OASL (11726364_x_at) / RFU SOX15 (11748057_x_at) / Fold change /veh SOX15 (11748057_x_at) / RFU CD79A (11719716_a_at) / Fold change /veh CD79A (11719716_a_at) / RFU HIST1H1D (11736915_at) / Fold change /veh HIST1H1D (11736915_at) / RFU CASKIN2 (11723855_a_at) / Fold change /veh CASKIN2 (11723855_a_at) / RFU LOC730098 (11760151_x_at) / Fold change /veh LOC730098 (11760151_x_at) / RFU OR4N2 (11742367_at) / Fold change /veh OR4N2 (11742367_at) / RFU PRRT2 (11749266_a_at) / Fold change /veh PRRT2 (11749266_a_at) / RFU SNX32 (11753110_a_at) / Fold change /veh SNX32 (11753110_a_at) / RFU CDHR5 (11726645_a_at) / Fold change /veh CDHR5 (11726645_a_at) / RFU RCAN1 (11760418_a_at) / Fold change /veh RCAN1 (11760418_a_at) / RFU FAM167A (11723789_a_at) / Fold change /veh FAM167A (11723789_a_at) / RFU FAM26E (11764081_at) / Fold change /veh FAM26E (11764081_at) / RFU ISYNA1 (11749810_s_at) / Fold change /veh ISYNA1 (11749810_s_at) / RFU ACY1 (11761880_at) / Fold change /veh ACY1 (11761880_at) / RFU 11764098_at / Fold change /veh 11764098_at / RFU SAMD14 (11745864_x_at) / Fold change /veh SAMD14 (11745864_x_at) / RFU NPB (11741838_a_at) / Fold change /veh NPB (11741838_a_at) / RFU TMPRSS6 (11731388_a_at) / Fold change /veh TMPRSS6 (11731388_a_at) / RFU KRTAP10-2 (11738614_at) / Fold change /veh KRTAP10-2 (11738614_at) / RFU ARHGAP8 /// PRR5-ARHGAP8 (11727945_x_at) / Fold change /veh ARHGAP8 /// PRR5-ARHGAP8 (11727945_x_at) / RFU KRTAP5-7 /// NADSYN1 (11734609_at) / Fold change /veh KRTAP5-7 /// NADSYN1 (11734609_at) / RFU RASL12 (11751679_a_at) / Fold change /veh RASL12 (11751679_a_at) / RFU CDKN2B (11736163_a_at) / Fold change /veh CDKN2B (11736163_a_at) / RFU PRF1 (11729649_at) / Fold change /veh PRF1 (11729649_at) / RFU, ZNF638 /// ZNF638-IT1 / Fold change vs veh, ZNF638 /// ZNF638-IT1 / RFU, PANK3 / Fold change vs veh, PANK3 / RFU, SH3YL1 / Fold change vs veh, SH3YL1 / RFU, ZEB2 / Fold change vs veh, ZEB2 / RFU, NRIP1 / Fold change vs veh, NRIP1 / RFU, PTTG1IP / Fold change vs veh, PTTG1IP / RFU, CAPN2 / Fold change vs veh, CAPN2 / RFU, MED14 / Fold change vs veh, MED14 / RFU, SNORA58 / Fold change vs veh, SNORA58 / RFU, C1orf63 / Fold change vs veh, C1orf63 / RFU, LRRFIP1 / Fold change vs veh, LRRFIP1 / RFU, NDUFAF7 / Fold change vs veh, NDUFAF7 / RFU, SLC12A2 / Fold change vs veh, SLC12A2 / RFU, IBTK / Fold change vs veh, IBTK / RFU, ESF1 / Fold change vs veh, ESF1 / Fold change vs veh, TMEM50B / RFU, TAOK1 / Fold change vs veh, TAOK1 / RFU, ACBD3 / Fold change vs veh, ACBD3 / RFU, TMA16 / Fold change vs veh, TMA16 / RFU, RWDD3 / Fold change vs veh, RWDD3 / RFU, BCAT1 / Fold change vs veh, BCAT1 / RFU, EDEM3 / Fold change vs veh, EDEM3 / RFU, TMEM33 / Fold change vs veh, TMEM33 / RFU, WDR75 / Fold change vs veh, WDR75 / RFU, AHCTF1 / Fold change vs veh, AHCTF1 / RFU, TFRC / Fold change vs veh, TFRC / RFU, ZDHHC17 / Fold change vs veh, ZDHHC17 / RFU, NOM1 / Fold change vs veh, NOM1 / RFU, ARL8B / Fold change vs veh, ARL8B / RFU, ZBTB11 / Fold change vs veh, ZBTB11 / RFU, TAMM41 / Fold change vs veh, TAMM41 / RFU, KIAA1704 /// LOC100996395 / Fold change vs veh, KIAA1704 /// LOC100996395 / RFU, ING1 / Fold change vs veh, ING1 / RFU, TRMT61B / Fold change vs veh, TRMT61B / RFU, FUBP3 / Fold change vs veh, FUBP3 / RFU, TP53 / Fold change vs veh, TP53 / RFU, TNKS2 / Fold change vs veh, TNKS2 / RFU, ZFP14 / Fold change vs veh, ZFP14 / RFU, ACTR2 / Fold change vs veh, ACTR2 / RFU, PPP3R1 / Fold change vs veh, PPP3R1 / RFU, PIK3R1 / Fold change vs veh, PIK3R1 / RFU, HNRNPA1 / Fold change vs veh, HNRNPA1 / RFU, RNF170 / Fold change vs veh, RNF170 / RFU, ZNF28 / Fold change vs veh, ZNF28 / RFU, RNGTT / Fold change vs veh, RNGTT / RFU, OGT / Fold change vs veh, OGT / RFU, BRD1 / Fold change vs veh, BRD1 / RFU, MARS / Fold change vs veh, MARS / RFU, ZNF655 / Fold change vs veh, ZNF655 / RFU, FAHD1 / Fold change vs veh, FAHD1 / RFU, BDP1 / Fold change vs veh, BDP1 / RFU, LRRCC1 / Fold change vs veh, LRRCC1 / RFU, ARID1A / Fold change vs veh, ARID1A / RFU, ZNF146 / Fold change vs veh, ZNF146 / RFU, ZNF330 / Fold change vs veh, ZNF330 / RFU, GPN3 / Fold change vs veh, GPN3 / RFU, C9orf123 / Fold change vs veh, C9orf123 / RFU, N4BP2L2 / Fold change vs veh, N4BP2L2 / RFU, ARFIP1 / Fold change vs veh, ARFIP1 / RFU, FAM179B / Fold change vs veh, FAM179B / RFU, BCL10 / Fold change vs veh, BCL10 / RFU, UHRF1BP1L / Fold change vs veh, UHRF1BP1L / RFU, BET1 / Fold change vs veh, BET1 / RFU, CNOT2 / Fold change vs veh, CNOT2 / RFU, ZNF268 / Fold change vs veh, ZNF268 / Fold change vs veh, ZNF507 / RFU, DGCR2 / Fold change vs veh, DGCR2 / RFU, WDSUB1 / Fold change vs veh, WDSUB1 / Fold change vs veh, HSP90B1 /// MIR3652 / RFU, ADSS / Fold change vs veh, ADSS / RFU, GK / Fold change vs veh, GK / RFU, ZNF148 / Fold change vs veh, ZNF148 / RFU, TAF9 / Fold change vs veh, TAF9 / RFU, SLC1A5 / Fold change vs veh, SLC1A5 / RFU, SLMO2 / Fold change vs veh, SLMO2 / RFU, ABCC4 / Fold change vs veh, ABCC4 / RFU, LOC101060439 /// RAP1B / Fold change vs veh, LOC101060439 /// RAP1B / RFU, RFX7 / Fold change vs veh, RFX7 / RFU, GTPBP10 / Fold change vs veh, GTPBP10 / RFU, CNEP1R1 / Fold change vs veh, CNEP1R1 / RFU, BIVM-ERCC5 /// ERCC5 / Fold change vs veh, BIVM-ERCC5 /// ERCC5 / RFU, ILF3 / Fold change vs veh, ILF3 / RFU 11762660_at / Fold change /veh 11762660_at / RFU VCAN (11757783_s_at) / Fold change /veh VCAN (11757783_s_at) / RFU DDX43 (11728927_at) / Fold change /veh DDX43 (11728927_at) / RFU KRT8 (11758188_x_at) / Fold change /veh KRT8 (11758188_x_at) / RFU NKD1 (11759106_at) / Fold change /veh NKD1 (11759106_at) / RFU SRD5A1 (11742802_a_at) / Fold change /veh SRD5A1 (11742802_a_at) / RFU TPSAB1 /// TPSB2 (11721975_s_at) / Fold change /veh TPSAB1 /// TPSB2 (11721975_s_at) / RFU GSTM3 (11746129_a_at) / Fold change /veh GSTM3 (11746129_a_at) / RFU IL23R (11737362_x_at) / Fold change /veh IL23R (11737362_x_at) / RFU TMEM51 (11727254_a_at) / Fold change /veh TMEM51 (11727254_a_at) / RFU PIWIL2 (11732686_x_at) / Fold change /veh PIWIL2 (11732686_x_at) / RFU ORM1 (11744905_x_at) / Fold change /veh ORM1 (11744905_x_at) / RFU CCDC152 (11743942_at) / Fold change /veh CCDC152 (11743942_at) / RFU ECM1 (11717891_a_at) / Fold change /veh ECM1 (11717891_a_at) / RFU IL23R (11748794_a_at) / Fold change /veh IL23R (11748794_a_at) / RFU TNFAIP8L3 (11732012_x_at) / Fold change /veh TNFAIP8L3 (11732012_x_at) / RFU MBOAT4 (11741988_at) / Fold change /veh MBOAT4 (11741988_at) / RFU 11764193_at / Fold change /veh 11764193_at / RFU TMEM53 (11763286_at) / Fold change /veh TMEM53 (11763286_at) / RFU MAGEB2 (11727129_at) / Fold change /veh MAGEB2 (11727129_at) / RFU TMEM200A (11744735_a_at) / Fold change /veh TMEM200A (11744735_a_at) / RFU CCDC152 (11751479_a_at) / Fold change /veh CCDC152 (11751479_a_at) / RFU FAM211A (11726209_a_at) / Fold change /veh FAM211A (11726209_a_at) / RFU RGS16 (11746705_a_at) / Fold change /veh RGS16 (11746705_a_at) / RFU VCAN (11755009_s_at) / Fold change /veh VCAN (11755009_s_at) / RFU RHOB (11743442_s_at) / Fold change /veh RHOB (11743442_s_at) / RFU RGS16 (11720943_a_at) / Fold change /veh RGS16 (11720943_a_at) / RFU RGS16 (11720944_at) / Fold change /veh RGS16 (11720944_at) / RFU, VPS4B / Fold change vs veh, VPS4B / RFU, CREB1 / Fold change vs veh, CREB1 / RFU, DNAJC13 / Fold change vs veh, DNAJC13 / RFU, GNAQ / Fold change vs veh, GNAQ / RFU, CDK5R1 / Fold change vs veh, CDK5R1 / RFU, ZRANB3 / Fold change vs veh, ZRANB3 / RFU, CUL4A / Fold change vs veh, CUL4A / RFU, CCNY / Fold change vs veh, CCNY / RFU, UFL1 / Fold change vs veh, UFL1 / RFU, COG3 / Fold change vs veh, COG3 / RFU, DIAPH2 / Fold change vs veh, DIAPH2 / RFU, SKA2 / Fold change vs veh, SKA2 / RFU, AFF3 / Fold change vs veh, AFF3 / RFU, LMF1 / Fold change vs veh, LMF1 / RFU, IPO11 / Fold change vs veh, IPO11 / RFU, DFFB / Fold change vs veh, DFFB / RFU, FOXP1 / Fold change vs veh, FOXP1 / RFU, CARD8 / Fold change vs veh, CARD8 / RFU, STRN3 / Fold change vs veh, STRN3 / RFU, ADK / Fold change vs veh, ADK / RFU, RASSF2 / Fold change vs veh, RASSF2 / RFU, WIPF1 / Fold change vs veh, WIPF1 / RFU, LARP1B / Fold change vs veh, LARP1B / RFU, RASA1 / Fold change vs veh, RASA1 / RFU, RB1 / Fold change vs veh, RB1 / RFU, PPFIA1 / Fold change vs veh, PPFIA1 / RFU, MAT2A / Fold change vs veh, MAT2A / RFU, CCT5 / Fold change vs veh, CCT5 / RFU, WDR92 / Fold change vs veh, WDR92 / RFU, CUX1 / Fold change vs veh, CUX1 / RFU, TTC7A / Fold change vs veh, TTC7A / RFU, TMEM135 / Fold change vs veh, TMEM135 / RFU, DEPTOR / Fold change vs veh, DEPTOR / RFU, CPM / Fold change vs veh, CPM / RFU, DNAJB6 / Fold change vs veh, DNAJB6 / RFU, CACNA2D3 / Fold change vs veh, CACNA2D3 / RFU, DTX4 / Fold change vs veh, DTX4 / RFU, TFCP2 / Fold change vs veh, TFCP2 / RFU, GMCL1 /// GMCL1P1 / Fold change vs veh, GMCL1 /// GMCL1P1 / RFU, AEBP2 / Fold change vs veh, AEBP2 / RFU, SNHG1 /// SNORD22 /// SNORD25 /// SNORD26 /// SNORD27 /// SNORD28 /// SNORD29 /// SNORD31 / Fold change vs veh, SNHG1 /// SNORD22 /// SNORD25 /// SNORD26 /// SNORD27 /// SNORD28 /// SNORD29 /// SNORD31 / Fold change (Aza/veh), C12orf56 (ProbeSet 11735607_a_at) / Fold change (ACY-1035/veh), C12orf56 (ProbeSet 11735607_a_at) / Fold change (Aza/veh), FGFR1OP (ProbeSet 11751329_s_at) / Fold change (ACY-1035/veh), FGFR1OP (ProbeSet 11751329_s_at) / Fold change (Aza/veh), VPS36 (ProbeSet 11739960_a_at) / Fold change (ACY-1035/veh), VPS36 (ProbeSet 11739960_a_at) / RFU SYPL1 (11715823_x_at) / Fold change /veh SYPL1 (11715823_x_at) / RFU IGFBP7 (11715501_s_at) / Fold change /veh IGFBP7 (11715501_s_at) / RFU REEP3 (11722064_at) / Fold change /veh REEP3 (11722064_at) / RFU IGLL1 (11728026_x_at) / Fold change /veh IGLL1 (11728026_x_at): dose or concentration left out as unconfirmed
Conditions: MV-4-11 cells, 48 hours

Nc1ccc(-c2cccs2)cc1NC(=O)c1ccc2c(c1)cc(C1CC1)n2CCN1CCOCC1 [ACY-1035]
RFU SOX15 (11748057_x_at): 11.14 RFU
